Assay results published in PubChem BioAssay (NCI).
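96-well plates; 48 h exposure; 5 concentrations. Endpoints by linear interpolation between flanking doses. Not reached: highest tested concentration assigned. TGI denotes the concentration required for complete inhibition of growth.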

How the values were obtained:
Experiment in all cases: DTP human tumour cell line panel, 48 h
HCT-15 colon = test system: HCT-15 colon
OVCAR-5 ovarian = test system: OVCAR-5 ovarian
UACC-257 melanoma = test system: UACC-257 melanoma
HS 578T breast = test system: HS 578T breast
SF-268 CNS = test system: SF-268 CNS
SN12C renal = test system: SN12C renal
MDA-N = test system: MDA-N
NCI-H522 lung = test system: NCI-H522 lung
CCRF-CEM leukemia = test system: CCRF-CEM leukemia
SK-MEL-28 melanoma = test system: SK-MEL-28 melanoma

Row | Structure (SMILES) | TGI (HCT-15 colon) | TGI (OVCAR-5 ovarian) | TGI (UACC-257 melanoma) | TGI (HS 578T breast) | TGI (SF-268 CNS) | TGI (SN12C renal) | TGI (MDA-N) | TGI (NCI-H522 lung) | TGI (CCRF-CEM leukemia) | TGI (SK-MEL-28 melanoma)
1 | CC[N+]1(C)CCC(O)(c2ccc(C)cc2)C(C(=O)c2ccc(C)cc2)C1 (stereo not given) | 45.9 µM | > 100 µM | > 100 µM | > 100 µM | > 100 µM | > 100 µM | > 100 µM | 41.7 µM | 44.2 µM | –
2 | CCN(CC)c1ccc(NC(=S)NN(C)C)cc1 | > 10 µM | – | > 10 µM | > 10 µM | > 10 µM | > 10 µM | > 10 µM | > 10 µM | > 10 µM | > 10 µM
3 | CCCCCCc1cc2cc(-c3csc(-c4ccc(OC)cc4)n3)c(=O)oc2cc1O | 46.8 µM | 79.9 µM | 32.6 µM | 60.7 µM | 14.9 µM | 23.6 µM | – | – | > 100 µM | 24.6 µM
4 | CCCCN1C(=O)CC2[C@@H]3CCc4cc(OC)ccc4C3CC[C@]2(C)C1=O (stereo not given in full) | > 10 µM | > 10 µM | > 10 µM | > 10 µM | > 10 µM | > 10 µM | > 10 µM | – | > 10 µM | > 10 µM
5 | CC1(C)OC[C@@H](C[C@H](O)COCc2ccccc2)O1 | > 100 µM | > 100 µM | > 100 µM | > 100 µM | > 100 µM | > 100 µM | > 100 µM | > 100 µM | > 100 µM | > 100 µM
6 | COc1ccc(C2=C(Cl)C(=O)O/C2=C\c2ccc(OC)c(Br)c2)cc1Cl | > 100 µM | > 100 µM | > 100 µM | > 100 µM | 38 µM | – | > 100 µM | 57.5 µM | 79.2 µM | > 100 µM
7 | N#Cc1nc(CCCN2C(=O)c3ccccc3C2=O)oc1N | > 100 µM | > 100 µM | > 100 µM | > 100 µM | > 100 µM | > 100 µM | > 100 µM | > 100 µM | > 100 µM | > 100 µM
8 | NC(Cc1[nH]nc2ccccc12)C(=O)O (stereo not given) | > 100 µM | > 100 µM | > 100 µM | > 100 µM | > 100 µM | > 100 µM | – | > 100 µM | > 100 µM | > 100 µM
9 | Cc1nnc2n1-c1ccccc1N(Cc1ccccc1)CC2 | > 100 µM | > 100 µM | > 100 µM | > 100 µM | > 100 µM | > 100 µM | > 100 µM | – | 90.3 µM | > 100 µM
10 | NCCN(CCN(C(=O)Nc1ccccc1)c1ccccc1)C(=O)Nc1ccccc1 | 76.4 µM | 45.6 µM | 36.4 µM | 56 µM | 49 µM | 69.7 µM | 47.8 µM | 41.1 µM | > 100 µM | 35.9 µM
11 | Cc1cc(S(=O)(=O)Nc2n[nH]c(Nc3ccccc3)n2)c(SCC(=O)O)cc1Cl | > 100 µM | > 100 µM | > 100 µM | > 100 µM | > 100 µM | > 100 µM | > 100 µM | > 100 µM | > 100 µM | > 100 µM
12 | Nc1nncc2[nH]cnc12 | > 100 µM | > 100 µM | > 100 µM | > 100 µM | > 100 µM | > 100 µM | > 100 µM | > 100 µM | 20.7 µM | > 100 µM
13 | Cc1ccc(C(=O)Cc2nc3c([nH]c2=O)c(C)nn3-c2ccccc2)c(C)c1 | > 10 µM | – | > 10 µM | > 10 µM | > 10 µM | > 10 µM | > 10 µM | > 10 µM | > 10 µM | > 10 µM
14 | Cc1cc(OCc2nnc3sc(NC(=O)c4ccccc4)nn23)ccc1Cl | > 100 µM | > 100 µM | > 100 µM | 95.6 µM | > 100 µM | > 100 µM | – | 61 µM | > 100 µM | > 100 µM
15 | c1c(N2CCOCC2)ssc1=[N+]1CCOCC1 | > 100 µM | > 100 µM | > 100 µM | – | > 100 µM | > 100 µM | – | > 100 µM | > 100 µM | > 100 µM
16 | O=C1CS/C(=N/N=C/c2cn(Cc3ccc(Cl)cc3Cl)c3ccccc23)N1 | > 100 µM | > 100 µM | > 100 µM | 83.6 µM | > 100 µM | 70.9 µM | – | > 100 µM | 56.4 µM | > 100 µM
17 | CCOc1snc(C(Cl)(Cl)Cl)c1Cl | > 100 µM | > 100 µM | 33.9 µM | > 100 µM | 46.1 µM | 89.7 µM | > 100 µM | – | 54.5 µM | 94 µM
18 | CN(C)CCCNc1cc(O)c2c(c1O)C(=O)c1ccccc1C2=O | 21 µM | 33.7 µM | 26.6 µM | 50.2 µM | 36.4 µM | 16.5 µM | 27.4 µM | 40.7 µM | – | 31 µM
19 | N#Cc1ccc(-c2nc(C#N)c(N)o2)cc1 | > 10 µM | – | > 10 µM | > 10 µM | > 10 µM | > 10 µM | > 10 µM | > 10 µM | > 10 µM | > 10 µM
20 | S=c1[nH]nc(Cn2c3ccc(Br)cc3c3nc4ccccc4nc32)n1C1CCCCC1 | > 100 µM | > 100 µM | > 100 µM | – | > 100 µM | > 56.6 µM | > 93.7 µM | 67.4 µM | 84.1 µM | > 56.8 µM
21 | O=P(OCc1ccccc1)(OCc1ccccc1)C(O)/C=C/c1ccccc1 (stereo not given) | > 100 µM | > 100 µM | 38.6 µM | 45.1 µM | 42.8 µM | 39 µM | 36 µM | 57.7 µM | – | > 100 µM
22 | CC(=O)OC1CC2(O)C(CCC3(C)C(c4ccc(=O)oc4)CCC32O)C2(C)C1=CC(O)C1OC12 (stereo not given) | 0.32 µM | 0.772 µM | 0.333 µM | – | 0.0874 µM | 0.882 µM | – | 0.0784 µM | 0.487 µM | 0.592 µM
